pEC50: −log10 of the molar value.
Assays:
Dkk1-LRP5-TCF-Luciferase [1] = tested on: Dkk1-LRP5-TCF-Luciferase
Experimental: (§1) Biological Evaluation—Functional Dkk1-LRP5-TCF-Luciferase Assay in U2OS Cells
(§2) Frozen U2OS-Dkk1-HTS Reporter cells generation: U2OS Human Bone derived cells (Osteosarcoma) are grown in McCoy's 5A Medium (Modified), with L -glutamine (GIBCO Cat No. 16600-082)+1% Pen-Strep+5% FBS) plated at 1×10^7 cells/T175 cm flask. The next day, the cells are co-transfected overnight with the following plasmids: (a) Test reporter (16×TCF-TK-FireFly-Luci), (b) Internal Control Reporter (TK-Renilla-Luci), (c) Wnt3a and (d) Dkk1. GIBCO's Lipofectamine 2000 and OptiMEM are used for the transfection. After a minimum of 4 hr of transfection at 37° C., the plasmid-transfected cells are trypsinized, counted, and suspended in freezing medium (95% FBS+5% DMSO). The reporter cells are frozen at 1×10^7/ml concentrations, aliquoted into 0.5 ml or 2.5 ml/tube and stored at 70° C.
(§3) The following day, test compounds are added under HTS setup by Plate Track into 384 well plates (white, TC treated, Falcon plate) such that the final concentration of the compounds in 20 μL/well cell will be 5 μg/ml (final concentration of DMSO=0.25% and final compound concentration=20 μM). Vials of frozen reporter cells are thawed by warming the vial in a 37° C. water bath for 60-120 seconds with some shaking until the cells formed a suspension. The thawed cells are transferred into a cold 50 ml (or larger) tube and mixed well by gentle pipetting. The appropriate amount of cold Phenol Red Free RPMI medium-1640 (GIBCO, Cat #11835-030) with L-glutamine is added, both with ˜5% FBS (GIBCO-BRL, Cat. #16000-044), so that 20 μl of the final cell suspension will contain ˜5,000 cells. The cell dilution is done such that the final concentration of FBS is ˜5%.
(§4) Diluted cells (20 μl) are added into each well in a 384 well plate. The plate is incubated at 37° C. under 5% CO2 for ˜20 h. Bright-Glo substrate, 2.5 μl/well is added, and the Fire Fly Luciferase is measured using VLUX (60 second exposure) immediately after the substrate is added. Test compounds are dissolved in DMSO (100%) and added to specified wells. Raw luciferase signal data obtained as relative luminescence units (RLUs) for the test compounds are normalized to the signal of the mean of the sample reporter cell plate with DMSO.

Dkk1-LRP5-TCF-Luciferase [2] = assay: Functional Dkk1-LRP5-TCF-Luciferase Assay in U2OS Cells; details: for fold induction at 2 µM: read-out: B = TCF ACTIVITY/DMSO CONTROL Fold induction @ 2.0 uM, 2.0 uM compound; for fold induction at 20 µM: read-out: C = TCF ACTIVITY/DMSO CONTROL Fold induction @ 20.0 uM, 20.0 uM compound; for A = MAX FOLD Induction/DMSO CONTROL: maximum fold induction over DMSO control
Experimental: as §1, §2, §3, §4

| Compound | B = TCF ACTIVITY/DMSO CONTROL Fold induction @ 2.0 uM (Dkk1-LRP5-TCF-Luciferase [1]; 2 µM) | C = TCF ACTIVITY/DMSO CONTROL Fold induction @ 20.0 uM (Dkk1-LRP5-TCF-Luciferase [1]; 20 µM) | fold induction at 2 µM (Dkk1-LRP5-TCF-Luciferase [2]; Homo sapiens, U2OS) | fold induction at 20 µM (Dkk1-LRP5-TCF-Luciferase [2]; Homo sapiens, U2OS) | A = MAX FOLD Induction/DMSO CONTROL (Dkk1-LRP5-TCF-Luciferase [2]) | pEC50 (Dkk1-LRP5-TCF-Luciferase [2]; Homo sapiens, U2OS) |
| --- | --- | --- | --- | --- | --- | --- |
| 6-{2-[4-(aminomethyl)piperidin-1-yl]pyrimidin-4-yl}-2-naphthyl acetate | 1.435 fold | 1.995 fold | – | – | – | – |
| c1ccc2cc(-c3ccnc(N[C@H]4CCNC4)n3)ccc2c1 [4-(2-naphthyl)-N-[(3S)-pyrrolidin-3-yl]pyrimidin-2-amine] | – | – | 2.84 | 0.89 | 1.360 fold | – |
| C[C@H](NC(=O)OC(C)(C)C)C1CCN(c2nccc(-c3ccc4ccccc4c3)n2)CC1 [tert-butyl ((1S)-1-{1-[4-(2-naphthyl)pyrimidin-2-yl]piperidin-4-yl}ethyl)carbamate] | – | – | – | 1.08 | – | – |
| c1ccc2cc(-c3ccnc(N4CCC(CN5CCOCC5)CC4)n3)ccc2c1 [4-({1-[4-(2-naphthyl)pyrimidin-2-yl]piperidin-4-yl}methyl)morpholine] | – | – | 0.76 | 1.96 | 2.380 fold | 5.30 |
| O=C([C@H]1CCCN1c1nccc(-c2ccc3ccccc3c2)n1)N1CCCC1 [4-(2-naphthyl)-2-[(2R)-2-(pyrrolidin-1-ylcarbonyl)pyrrolidin-1-yl]pyrimidine] | – | – | 1.05 | 1.1 | – | – |
| CCNC(=O)N1CCC(CNc2nccc(-c3ccc4ccccc4c3)n2)CC1 [N-ethyl-4-({[4-(2-naphthyl)pyrimidin-2-yl]amino}methyl)piperidine-1-carboxamide] | – | – | 1.35 | 1.3 | – | – |
| O=CN1CCCN(c2nccc(-c3ccc4ccccc4c3)n2)CC1 [4-[4-(2-naphthyl)pyrimidin-2-yl]-1,4-diazepane-1-carbaldehyde] | – | – | 0.87 | 1.88 | – | – |
| CC(C)NC(=O)N[C@@H]1CCN(c2nccc(-c3ccc4ccccc4c3)n2)C1 [N-isopropyl-N′-{(3R)-1-[4-(2-naphthyl)pyrimidin-2-yl]pyrrolidin-3-yl}urea] | – | – | 1.19 | 1.09 | – | – |
| O=C(N1CCOCC1)N1CC[C@H](Nc2nccc(-c3ccc4ccccc4c3)n2)C1 [N-[(3S)-1-(morpholin-4-ylcarbonyl)pyrrolidin-3-yl]-4-(2-naphthyl)pyrimidin-2-amine] | – | – | 1.12 | 1.94 | – | – |

From patent US20090054392A1, “NAPHTHYLPYRIMIDINE, NAPHTHYLPYRAZINE AND NAPHTHYLPYRIDAZINE ANALOGS AND THEIR USE AS AGONISTS OF THE WNT-BETA-CATENIN CELLULAR MESSAGING SYSTEM” (Wyeth, priority 2007, published 2009)
